Where a SMILES comes first, the peptide text is derived from it. Bridges are numbered along the chain shown (N, C = ends). [ ]: non-standard residue; d: D form. Tle = CC(C)(C)[C@H](N)C(=O)O; dDab = NCC[C@@H](N)C(=O)O; Nle = CCCC[C@H](N)C(=O)O; Orn = NCCC[C@H](N)C(=O)O; Dab = NCC[C@H](N)C(=O)O; Dap = NC[C@H](N)C(=O)O; Sar = CNCC(=O)O
Legend:
Type in all cases: cell-based
[1] = test system: human red blood cells (hRBC); test: Hemolysis of human red blood cells; settings: red cells of human, 1 h, 100 μg/mL
How it was run: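 Hemolysis was read as supernatant absorbance at 540 nm and expressed as a percentage of Triton X-100 (2.5%) lysis. Washed human red cells (20% v/v) had been exposed to each peptide at 100 μg/mL for 1 h at 37° C.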

[2] = test system: Acinetobacter baumannii DSM 30008; settings: DSM 30008
How it was run: (§1)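 CLSI broth microdilution in cation-adjusted Mueller-Hinton II broth with 0.002% Polysorbate 80, inoculum appr. 10^6 CFU/mL, peptides in serial two-fold dilutions. MIC (μg/mL) is the lowest concentration with no visible growth after 18-20 hours at 35° C.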

[3] = test system: Escherichia coli ATCC 25922; settings: ATCC 25922
How it was run: as §1

Escherichia coli 926415 = settings: 926415
[4] = test system: Klebsiella pneumoniae SSI #3010; settings: SSI #3010
How it was run: as §1

[5] = test system: Acinetobacter baumannii 872842; settings: 872842
[6] = test system: Pseudomonas aeruginosa ATCC 27853; settings: ATCC 27853
How it was run: as §1

[7] = test system: Klebsiella pneumoniae 968733; settings: 968733

| SMILES | Hemolysis at 100 μg/mL [1] [%] | Acinetobacter baumannii DSM 30008 MIC [2] [µg/mL] | Escherichia coli ATCC 25922 MIC [3] [µg/mL] | Escherichia coli 926415 MIC (Escherichia coli 926415) [µg/mL] | Klebsiella pneumoniae SSI #3010 MIC [4] [µg/mL] | Acinetobacter baumannii 872842 MIC [5] [µg/mL] | Pseudomonas aeruginosa ATCC 27853 MIC [6] [µg/mL] | Klebsiella pneumoniae 968733 MIC [7] [µg/mL] |
| --- | --- | --- | --- | --- | --- | --- | --- | --- |
| CCCC[C@@H]1NC(=O)[C@@H]2CCCN2C(=O)[C@H]2CCCN2C(=O)[C@H](CO)NC(=O)[C@H](CO)NC(=O)[C@H](C(C)(C)C)NC(=O)[C@@H](NC(=O)[C@@H](N)Cc2c[nH]c3ccccc23)CSSC[C@@H](C(=O)N(C)CC(=O)N[C@@H](CCN)C(=O)N[C@H](C(=O)N[C@@H](CCN)C(=O)N[C@H]2CCNC(=O)[C@H]([C@@H](C)O)NC(=O)[C@H](CCN)NC(=O)[C@H](CCN)NC(=O)[C@H](CC(C)C)NC(=O)[C@@H](CC(C)C)NC(=O)[C@H](CCN)NC2=O)[C@@H](C)O)NC(=O)[C@H](Cc2ccc(O)cc2)NC(=O)[C@H](CN)NC1=O [Ex. 147] (H-WC[Tle]SS[dP]P[Nle][Dap]YC[Sar][Dab]T[Dab][Dab][Dab][dL]L[Dab][Dab]T; disulfide 2-11; lactam 16-C) | <1 | 0.03125 | 0.0625 | 0.0625 | 0.0625 | 0.0625 | 1 | 0.5 |
| CC(C)C[C@@H]1NC(=O)[C@@H](CC(C)C)NC(=O)[C@H](CCN)NC(=O)[C@@H](NC(=O)[C@H](CCN)NC(=O)[C@H](CCN)NC(=O)[C@@H](CCN)NC(=O)[C@H](CCCN)NC(=O)[C@@H]2CSSC[C@H](NC(=O)[C@@H](N)Cc3c[nH]c4ccccc34)C(=O)N[C@@H](C(C)C)C(=O)N[C@@H](CO)C(=O)N[C@@H](CO)C(=O)N3CCC[C@@H]3C(=O)N3CCC[C@H]3C(=O)N[C@@H](C(C)C)C(=O)N[C@@H](CN)C(=O)N[C@@H](Cc3ccc(O)cc3)C(=O)N2)CCNC(=O)[C@H]([C@@H](C)O)NC(=O)[C@H](CCN)NC(=O)[C@H](CCN)NC1=O [Ex. 148] (H-WCVSS[dP]PV[Dap]YC[Orn][dDab][Dab][Dab][Dab][Dab][dL]L[Dab][Dab]T; disulfide 2-11; lactam 16-C) | <1 | 0.5 | 0.25 | 0.5 | 1 | 0.25 | 0.125 | 4 |
| CC(C)C[C@@H]1NC(=O)[C@@H](CC(C)C)NC(=O)[C@H](CCN)NC(=O)[C@@H](NC(=O)[C@H](CCN)NC(=O)[C@@H](CCN)NC(=O)[C@@H](NC(=O)[C@H](CCCN)NC(=O)[C@@H]2CSSC[C@H](NC(=O)[C@@H](N)Cc3c[nH]c4ccccc34)C(=O)N[C@@H](C(C)C)C(=O)N[C@@H](CO)C(=O)N[C@@H](CO)C(=O)N3CCC[C@@H]3C(=O)N[C@@H](Cc3ccc(O)cc3)C(=O)N[C@@H](C(C)C)C(=O)N[C@@H](CN)C(=O)N[C@@H](Cc3ccc(O)cc3)C(=O)N2)[C@@H](C)O)CCNC(=O)[C@H]([C@@H](C)O)NC(=O)[C@H](CCN)NC(=O)[C@H](CCN)NC1=O [Ex. 149] (H-WCVSS[dP]YV[Dap]YC[Orn]T[dDab][Dab][Dab][Dab][dL]L[Dab][Dab]T; disulfide 2-11; lactam 16-C) | <1 | 0.5 | 0.5 | 0.125 | 0.25 | 0.0625 | 0.5 | 0.5 |
| CCCC[C@@H]1NC(=O)[C@@H]2CCCN2C(=O)[C@H]2CCCN2C(=O)[C@H](CO)NC(=O)[C@H](CO)NC(=O)[C@H](C(C)C)NC(=O)[C@@H](NC(=O)[C@@H](N)Cc2c[nH]c3ccccc23)CSSC[C@@H](C(=O)N(C)CC(=O)N[C@@H](CCN)C(=O)N[C@H](C(=O)N[C@@H](CCN)C(=O)N[C@H]2CCNC(=O)[C@H]([C@@H](C)O)NC(=O)[C@H](CCN)NC(=O)[C@H](CCN)NC(=O)[C@H](CC(C)C)NC(=O)[C@@H](CC(C)C)NC(=O)[C@H](CCN)NC2=O)[C@@H](C)O)NC(=O)[C@H](C)NC(=O)[C@H](CN)NC1=O [Ex. 150] (H-WCVSS[dP]P[Nle][Dap]AC[Sar][Dab]T[Dab][Dab][Dab][dL]L[Dab][Dab]T; disulfide 2-11; lactam 16-C) | <1 | 0.25 | 0.125 | 0.5 | 0.25 | 0.25 | 1 | 8 |
| CC(C)C[C@@H]1NC(=O)[C@@H](CC(C)C)NC(=O)[C@H](CCN)NC(=O)[C@@H](NC(=O)[C@H](CCN)NC(=O)[C@H](CCN)NC(=O)[C@@H](NC(=O)[C@H](CCCN)NC(=O)[C@@H]2CSSC[C@H](NC(=O)[C@@H](N)Cc3c[nH]c4ccccc34)C(=O)N[C@@H](C(C)C)C(=O)N[C@@H](Cc3ccc(O)cc3)C(=O)N[C@@H](CO)C(=O)N3CCC[C@@H]3C(=O)N3CCC[C@H]3C(=O)N[C@@H](CC(C)C)C(=O)N[C@@H](CC(=O)O)C(=O)N[C@@H](Cc3ccc(O)cc3)C(=O)N2)[C@@H](C)O)CCNC(=O)[C@H]([C@@H](C)O)NC(=O)[C@H](CCN)NC(=O)[C@H](CCN)NC1=O [Ex. 151] (H-WCVYS[dP]PLDYC[Orn]T[Dab][Dab][Dab][Dab][dL]L[Dab][Dab]T; disulfide 2-11; lactam 16-C) | <1 | 1 | 0.25 | 2 | 1 | 0.5 | 0.5 | 8 |
| CC(C)C[C@@H]1NC(=O)[C@@H](CC(C)C)NC(=O)[C@H](CCN)NC(=O)[C@@H](NC(=O)[C@H](CCN)NC(=O)[C@@H](NC(=O)[C@H](CCN)NC(=O)CN(C)C(=O)[C@@H]2CSSC[C@H](NC(=O)[C@@H](N)Cc3c[nH]c4ccccc34)C(=O)N[C@@H](C(C)C)C(=O)N[C@@H](CCCNC(=N)N)C(=O)N[C@@H](CCCNC(=N)N)C(=O)N3CCC[C@@H]3C(=O)N3CCC[C@H]3C(=O)N[C@@H](CC(C)C)C(=O)N[C@@H](CO)C(=O)N[C@@H](Cc3ccc(O)cc3)C(=O)N2)[C@@H](C)O)CCNC(=O)[C@H]([C@@H](C)O)NC(=O)[C@H](CCN)NC(=O)[C@H](CCN)NC1=O [Ex. 152] (H-WCVRR[dP]PLSYC[Sar][Dab]T[Dab][Dab][Dab][dL]L[Dab][Dab]T; disulfide 2-11; lactam 16-C) | 1 | 0.25 | 0.25 | 2 | 0.25 | 0.125 | 2 | 8 |
| CC(C)C[C@@H]1NC(=O)[C@H](CO)NC(=O)[C@H](Cc2ccc(O)cc2)NC(=O)[C@@H]2CCCN2C(=O)[C@H]2CCCN2C(=O)[C@H](Cc2ccc(O)cc2)NC(=O)[C@H](C)NC(=O)[C@H](C(C)C)NC(=O)[C@@H](NC(=O)[C@@H](N)Cc2c[nH]c3ccccc23)CSSC[C@@H](C(=O)NCC(=O)N[C@@H](CCN)C(=O)N[C@H](C(=O)N[C@@H](CCN)C(=O)N[C@H]2CCNC(=O)[C@H]([C@@H](C)O)NC(=O)[C@H](CCN)NC(=O)[C@H](CCN)NC(=O)[C@H](CC(C)C)NC(=O)[C@@H](CC(C)C)NC(=O)[C@H](CCN)NC2=O)[C@@H](C)O)NC1=O [Ex. 153] (H-WCVAY[dP]PYSLCG[Dab]T[Dab][Dab][Dab][dL]L[Dab][Dab]T; disulfide 2-11; lactam 16-C) | <1 | 0.125 | 0.0625 | 0.125 | 0.0625 | 0.03125 | 0.5 | 0.0625 |
| CC(C)C[C@@H]1NC(=O)[C@H](CO)NC(=O)[C@H](CC(C)C)NC(=O)[C@@H]2CCCN2C(=O)[C@H]2CCCN2C(=O)[C@H]([C@@H](C)O)NC(=O)[C@H](C)NC(=O)[C@H](C(C)C)NC(=O)[C@@H](NC(=O)[C@@H](N)CC(C)C)CSSC[C@@H](C(=O)NCC(=O)N[C@@H](CCN)C(=O)N[C@H](C(=O)N[C@@H](CCN)C(=O)N[C@H]2CCNC(=O)[C@H]([C@@H](C)O)NC(=O)[C@H](CCN)NC(=O)[C@H](CCN)NC(=O)[C@H](CC(C)C)NC(=O)[C@@H](CC(C)C)NC(=O)[C@H](CCN)NC2=O)[C@@H](C)O)NC1=O [Ex. 154] (H-LCVAT[dP]PLSLCG[Dab]T[Dab][Dab][Dab][dL]L[Dab][Dab]T; disulfide 2-11; lactam 16-C) | <1 | 0.0625 | 0.0625 | 0.125 | 0.0625 | 0.03125 | 1 | 0.25 |

— patent US10829520B2, “Beta-hairpin peptidomimetics” (POLYPHOR AG, priority 2015, dated 2020)
